Laboratory results as given in the supplement of paper PMC11061612.

Tests used:
Selumetinib = compound: Cn1cnc2c(F)c(Nc3ccc(Br)cc3Cl)c(C(=O)NOCCO)cc21 [Selumetinib]; details: max 10 µM
Summary of the method: (§1)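 Plates with 1536 wells received cancer cell lines in 7.5 μl of DMEM/F12 or RPMI containing 10% FBS. After 24 hours at 37°C and 5% CO2, cells were dosed for 72 hours with final DMSO typically 0.2%, and viability was read by CellTiter-Glo 2.0 luminescence scaled between blank-well and DMSO-well means. The single-agent IC50 was taken from a logistic fit of the dose responses made with a non-linear mixed effects model, that logistic curve having two parameters.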

AZD5991 = compound: Cc1c2c(nn1C)CSCc1cc(n(C)n1)CSc1cc(c3ccccc3c1)OCCCc1c(C(=O)O)n(C)c3c-2c(Cl)ccc13 [AZD5991]; details: max 1 µM
Summary of the method: as §1

AZD0156 = compound: CN(C)CCCOc1ccc(-c2ccc3ncc4c(c3c2)n(C2CCOCC2)c(=O)n4C)cn1 [AZD0156]; details: max 3 µM
Summary of the method: as §1

MK-2206 = compound: NC1(c2ccc(-c3nc4ccn5c(=O)[nH]nc5c4cc3-c3ccccc3)cc2)CCC1 [MK-2206]; details: max 10 µM
Summary of the method: as §1

Trametinib = compound: CC(=O)Nc1cccc(-n2c(=O)n(C3CC3)c(=O)c3c(Nc4ccc(I)cc4F)n(C)c(=O)c(C)c32)c1 [Trametinib]; details: max 1 µM
Summary of the method: as §1

[1] = compound: O=C(Nc1ccc2[nH]nc(-c3ccncc3)c2c1)[C@@H]1CCN(CC(=O)N2CCN(c3ccc(-c4ncccn4)cc3)CC2)C1; details: max 5 µM
Summary of the method: as §1

Crizotinib = compound: C[C@@H](Oc1cc(-c2cnn(C3CCNCC3)c2)cnc1N)c1c(Cl)ccc(F)c1Cl [Crizotinib]; details: max 10 µM
Summary of the method: as §1

AZD5363 = compound: C1CN(CCC1(C(=O)N[C@@H](CCO)C2=CC=C(C=C2)Cl)N)C3=NC=NC4=C3C=CN4 [AZD5363]; details: max 10 µM
Summary of the method: as §1

Palbociclib = compound: CC(=O)c1c(C)c2cnc(Nc3ccc(N4CCNCC4)cn3)nc2n(C2CCCC2)c1=O [Palbociclib]; details: max 10 µM
Summary of the method: as §1

Carboplatin = compound: C1CC(C1)(C(=O)[O-])C(=O)[O-].N.N.[Pt+2] [Carboplatin]; details: max 10 µM
Summary of the method: as §1

Etoposide = compound: COc1cc([C@@H]2c3cc4c(cc3[C@@H](O[C@@H]3O[C@@H]5CO[C@@H](C)O[C@H]5[C@H](O)[C@H]3O)[C@H]3COC(=O)[C@H]23)OCO4)cc(OC)c1O [Etoposide]; details: max 10 µM
Summary of the method: as §1

AZD8186 = compound: C[C@@H](Nc1cc(F)cc(F)c1)c1cc(C(=O)N(C)C)cc2c(=O)cc(N3CCOCC3)oc12 [AZD8186]; details: max 10 µM
Summary of the method: as §1

Doxorubicin = compound: COc1cccc2c1C(=O)c1c(O)c3c(c(O)c1C2=O)C[C@@](O)(C(=O)CO)C[C@@H]3O[C@H]1C[C@H](N)[C@H](O)[C@H](C)O1 [Doxorubicin]; details: max 1 µM
Summary of the method: as §1

Venetoclax = compound: CC1(C)CCC(CN2CCN(c3ccc(C(=O)NS(=O)(=O)c4ccc(NCC5CCOCC5)c([N+](=O)[O-])c4)c(Oc4cnc5[nH]ccc5c4)c3)CC2)=C(c2ccc(Cl)cc2)C1 [Venetoclax]; details: max 1 µM
Summary of the method: as §1

Olaparib = compound: O=C(c1cc(Cc2n[nH]c(=O)c3ccccc23)ccc1F)N1CCN(C(=O)C2CC2)CC1 [Olaparib]; details: max 10 µM
Summary of the method: as §1

AZD2811 = compound: CCN(CCO)CCCOc1ccc2c(Nc3cc(CC(=O)Nc4cccc(F)c4)[nH]n3)ncnc2c1 [AZD2811]; details: max 1 µM
Summary of the method: as §1

Lapatinib = compound: CS(=O)(=O)CCNCc1ccc(-c2ccc3ncnc(Nc4ccc(OCc5cccc(F)c5)c(Cl)c4)c3c2)o1 [Lapatinib]; details: max 10 µM
Summary of the method: as §1

SRA737 = compound: N#Cc1cnc(Nc2cc(NC[C@H]3CNCCO3)c(C(F)(F)F)cn2)cn1 [SRA737]; details: max 10 µM
Summary of the method: as §1

AZD5153 = compound: COc1nnc2ccc(N3CCC(c4ccc(OCCN5CCN(C)C(=O)[C@H]5C)cc4)CC3)nn12 [AZD5153]; details: max 1 µM
Summary of the method: as §1

SG3199 = compound: CC1=CN2[C@@H](C1)C=NC3=CC(=C(C=C3C2=O)OC)OCCCCCOC4=C(C=C5C(=C4)N=C[C@@H]6CC(=CN6C5=O)C)OC [SG3199]; details: max 0.001 µM
Summary of the method: as §1

Alisertib = compound: COc1cc(Nc2ncc3c(n2)-c2ccc(Cl)cc2C(c2c(F)cccc2OC)=NC3)ccc1C(=O)O [Alisertib]; details: max 10 µM
Summary of the method: as §1

Prexasertib = compound: COc1cccc(OCCCN)c1-c1cc(Nc2cnc(C#N)cn2)n[nH]1 [Prexasertib]; details: max 1 µM
Summary of the method: as §1

AZD4320 = compound: CN(CC[C@H](CSC1=CC=CC=C1)NC2=C(C=C(C=C2)S(=O)(=O)NC(=O)C3=CC=C(C=C3)N4CCC(CC4)[C@H](C5=CC=CC=C5C6=CC=C(C=C6)Cl)O)S(=O)(=O)C(F)(F)F)CCO [AZD4320]; details: max 1 µM
Summary of the method: as §1

Gemcitabine = compound: Nc1ccn([C@@H]2O[C@H](CO)[C@@H](O)C2(F)F)c(=O)n1 [Gemcitabine]; details: max 0.3 µM
Summary of the method: as §1

AZD6738 = compound: C[C@@H]1COCCN1C2=NC(=NC(=C2)C3(CC3)[S@](=N)(=O)C)C4=C5C=CNC5=NC=C4 [AZD6738]; details: max 10 µM
Summary of the method: as §1

Paclitaxel = compound: CC(=O)O[C@H]1C(=O)[C@@]2(C)[C@H]([C@H](OC(=O)c3ccccc3)[C@]3(O)C[C@H](OC(=O)[C@H](O)[C@@H](NC(=O)c4ccccc4)c4ccccc4)C(C)=C1C3(C)C)[C@]1(OC(C)=O)CO[C@@H]1C[C@@H]2O [Paclitaxel]; details: max 3 µM
Summary of the method: as §1

Dasatinib = compound: CC1=C(C(=CC=C1)Cl)NC(=O)C2=CN=C(S2)NC3=CC(=NC(=N3)C)N4CCN(CC4)CCO [Dasatinib]; details: max 2 µM
Summary of the method: as §1

AZD1775 = compound: C=CCn1c(=O)c2cnc(Nc3ccc(N4CCN(C)CC4)cc3)nc2n1-c1cccc(C(C)(C)O)n1 [AZD1775]; details: max 3 µM
Summary of the method: as §1

Taselisib = compound: Cc1nc(-c2cn3c(n2)-c2ccc(-c4cnn(C(C)(C)C(N)=O)c4)cc2OCC3)n(C(C)C)n1 [Taselisib]; details: max 10 µM
Summary of the method: as §1

5-Fluorouracil = compound: O=c1[nH]cc(F)c(=O)[nH]1 [5-Fluorouracil]; details: max 20 µM
Summary of the method: as §1

Gefitinib = compound: COc1cc2ncnc(Nc3ccc(F)c(Cl)c3)c2cc1OCCCN1CCOCC1 [Gefitinib]; details: max 10 µM
Summary of the method: as §1

SN-38 = compound: CCc1c2c(nc3ccc(O)cc13)-c1cc3c(c(=O)n1C2)COC(=O)[C@]3(O)CC [SN-38]; details: max 0.3 µM
Summary of the method: as §1

AZD1390 = compound: CC(C)n1c(=O)n(C)c2cnc3cc(F)c(-c4ccc(OCCCN5CCCCC5)nc4)cc3c21 [AZD1390]; details: max 0.3 µM
Summary of the method: as §1

AZD7648 = compound: Cc1cc2ncnn2cc1Nc1ncc2c(n1)n(C1CCOCC1)c(=O)n2C [AZD7648]; details: max 10 µM
Summary of the method: as §1

Savolitinib = compound: C[C@@H](c1ccc2nccn2c1)n1nnc2ncc(-c3cnn(C)c3)nc21 [Savolitinib]; details: max 1 µM
Summary of the method: as §1

Cell Line	IC50, cell viability 72 h (Selumetinib)	IC50, cell viability 72 h (AZD5991)	IC50, cell viability 72 h (AZD0156)	IC50, cell viability 72 h (MK-2206)	IC50, cell viability 72 h (Trametinib)	IC50, cell viability 72 h [1]	IC50, cell viability 72 h (Crizotinib)	IC50, cell viability 72 h (AZD5363)	IC50, cell viability 72 h (Palbociclib)	IC50, cell viability 72 h (Carboplatin)	IC50, cell viability 72 h (Etoposide)	IC50, cell viability 72 h (AZD8186)	IC50, cell viability 72 h (Doxorubicin)	IC50, cell viability 72 h (Venetoclax)	IC50, cell viability 72 h (Olaparib)	IC50, cell viability 72 h (AZD2811)	IC50, cell viability 72 h (Lapatinib)	IC50, cell viability 72 h (SRA737)	IC50, cell viability 72 h (AZD5153)	IC50, cell viability 72 h (SG3199)	IC50, cell viability 72 h (Alisertib)	IC50, cell viability 72 h (Prexasertib)	IC50, cell viability 72 h (AZD4320)	IC50, cell viability 72 h (Gemcitabine)	IC50, cell viability 72 h (AZD6738)	IC50, cell viability 72 h (Paclitaxel)	IC50, cell viability 72 h (Dasatinib)	IC50, cell viability 72 h (AZD1775)	IC50, cell viability 72 h (Taselisib)	IC50, cell viability 72 h (5-Fluorouracil)	IC50, cell viability 72 h (Gefitinib)	IC50, cell viability 72 h (SN-38)	IC50, cell viability 72 h (AZD1390)	IC50, cell viability 72 h (AZD7648)	IC50, cell viability 72 h (Savolitinib)
NCI-H1993 (Lung Adenocarcinoma)	9.99 µM	> 1000 nM	> 3000 nM	4.43 µM	89.4 nM	3.25 µM	0.309 µM	5.22 µM	> 10 µM	> 10 µM	6.59 µM	> 10 µM	249 nM	> 1000 nM	> 10 µM	> 1000 nM	> 10 µM	> 10 µM	> 1000 nM	> 1 nM	> 10 µM	62.5 nM	383 nM	15.5 nM	> 10 µM	11.2 nM	> 2000 nM	1340 nM	4.52 µM	9.36 µM	> 10 µM	262 nM	> 300 nM	> 10 µM	22 nM
MDA-MB-453 (Breast Carcinoma)	> 10 µM	> 1000 nM	> 3000 nM	3.56 µM	> 1000 nM	> 5 µM	> 10 µM	8.59 µM	> 10 µM	> 10 µM	> 10 µM	> 10 µM	> 1000 nM	> 1000 nM	> 10 µM	> 1000 nM	> 10 µM	> 10 µM	349 nM	> 1 nM	> 10 µM	42.9 nM	> 1000 nM	> 300 nM	3.96 µM	509 nM	> 2000 nM	1510 nM	0.521 µM	> 20 µM	> 10 µM	68.2 nM	> 300 nM	> 10 µM	> 1000 nM
Ca-Ski (Cervical Carcinoma)	> 10 µM	> 1000 nM	> 3000 nM	> 10 µM	> 1000 nM	> 5 µM	> 10 µM	> 10 µM	> 10 µM	> 10 µM	8.85 µM	> 10 µM	355 nM	> 1000 nM	> 10 µM	> 1000 nM	> 10 µM	> 10 µM	867 nM	> 1 nM	8.32 µM	83.8 nM	> 1000 nM	222 nM	> 10 µM	23.8 nM	558 nM	657 nM	2.22 µM	> 20 µM	> 10 µM	11.7 nM	> 300 nM	> 10 µM	> 1000 nM
MOLT-4 (T-Lymphoblastic Leukemia)	> 10 µM	> 1000 nM	> 3000 nM	6.71 µM	> 1000 nM	> 5 µM	2.11 µM	4.18 µM	7.92 µM	> 10 µM	0.123 µM	> 10 µM	57 nM	> 1000 nM	> 10 µM	31.1 nM	> 10 µM	2.31 µM	> 1000 nM	> 1 nM	0.0376 µM	13.2 nM	93.1 nM	58.3 nM	1.69 µM	6.6 nM	> 2000 nM	428 nM	5.93 µM	12.8 µM	> 10 µM	2.99 nM	> 300 nM	> 10 µM	> 1000 nM
EFO-21 (Ovarian Carcinoma)	> 10 µM	> 1000 nM	> 3000 nM	> 10 µM	> 1000 nM	> 5 µM	> 10 µM	> 10 µM	> 10 µM	> 10 µM	> 10 µM	> 10 µM	> 1000 nM	> 1000 nM	> 10 µM	> 1000 nM	> 10 µM	> 10 µM	> 1000 nM	> 1 nM	> 10 µM	101 nM	> 1000 nM	> 300 nM	> 10 µM	> 3000 nM	> 2000 nM	> 3000 nM	> 10 µM	> 20 µM	> 10 µM	> 300 nM	> 300 nM	> 10 µM	> 1000 nM
SK-LU-1 (Lung Adenocarcinoma)	> 10 µM	> 1000 nM	> 3000 nM	> 10 µM	> 1000 nM	> 5 µM	> 10 µM	> 10 µM	> 10 µM	> 10 µM	> 10 µM	> 10 µM	–	> 1000 nM	> 10 µM	> 1000 nM	> 10 µM	> 10 µM	> 1000 nM	–	–	–	> 1000 nM	> 300 nM	> 10 µM	> 3000 nM	> 2000 nM	1150 nM	> 10 µM	> 20 µM	> 10 µM	145 nM	> 300 nM	> 10 µM	> 1000 nM
